Drawing on US20240262795A1, “PYRAZINE COMPOUNDS AS INHIBITORS OF FLT3” (Biomea Fusion, Inc., priority 2021, published 2024), this text covers IC50 and GI50 for 17 molecules.

The subject of assay [1] is MOLM-13. Description: Proliferation inhibition, CellTiter-Glo, MOLM-13. In kind it is cell-based, human. To be noted: Homo sapiens, 96 h; MOLM-13 cells, IC50 (4 days), CellTiter-Glo; read-out: MOLM-13 IC50. An outline of the steps: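 About 10,000 cells per well in RPMI-1640 with 10% FBS. Compounds added 2 h after seeding at eight concentrations in duplicate (0.2% DMSO as 100% proliferation), then incubated ~96 h at 37° C, 5% CO2. ATP measured by CellTiter-Glo luminescence; IC50 from four-parameter logistic fit.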

The target in assay [2] is T1, Ba/F3 cell lines stably expressing human FLT3-ITD (Homo sapiens, UniProt P36888, cells depend on it, form not given).
T1 sequence (P36888 1-993): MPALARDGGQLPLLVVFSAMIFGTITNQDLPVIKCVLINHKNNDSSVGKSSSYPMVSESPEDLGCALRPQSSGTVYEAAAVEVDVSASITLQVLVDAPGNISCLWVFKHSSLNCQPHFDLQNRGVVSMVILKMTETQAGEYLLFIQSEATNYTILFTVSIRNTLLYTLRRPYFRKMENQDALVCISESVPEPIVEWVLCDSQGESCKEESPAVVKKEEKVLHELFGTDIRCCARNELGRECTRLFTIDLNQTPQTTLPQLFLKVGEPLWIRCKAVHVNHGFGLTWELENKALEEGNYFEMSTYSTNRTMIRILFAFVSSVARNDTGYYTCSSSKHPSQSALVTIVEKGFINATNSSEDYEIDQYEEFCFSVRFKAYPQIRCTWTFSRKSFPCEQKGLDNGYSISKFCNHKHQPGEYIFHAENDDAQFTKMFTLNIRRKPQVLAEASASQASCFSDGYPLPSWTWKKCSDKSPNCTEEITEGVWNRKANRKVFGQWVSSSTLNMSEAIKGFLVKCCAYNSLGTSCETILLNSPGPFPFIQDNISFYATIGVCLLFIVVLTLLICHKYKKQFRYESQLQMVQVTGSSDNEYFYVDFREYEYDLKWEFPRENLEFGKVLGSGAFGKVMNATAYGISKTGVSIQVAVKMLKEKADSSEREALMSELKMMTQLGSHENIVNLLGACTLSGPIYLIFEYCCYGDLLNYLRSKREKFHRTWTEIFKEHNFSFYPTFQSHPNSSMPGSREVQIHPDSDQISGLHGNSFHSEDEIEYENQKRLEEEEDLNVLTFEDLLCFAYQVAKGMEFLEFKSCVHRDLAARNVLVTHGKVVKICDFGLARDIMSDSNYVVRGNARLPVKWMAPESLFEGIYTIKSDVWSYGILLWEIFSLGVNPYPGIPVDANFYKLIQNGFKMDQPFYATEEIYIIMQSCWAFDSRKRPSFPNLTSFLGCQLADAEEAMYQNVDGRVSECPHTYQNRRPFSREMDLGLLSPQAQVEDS
Kind of assay: FLT3 mutant assay, cell viability, Ba/F3-FLT3-ITD. It counts as cell-based, mouse. To be noted: IC50 (3 days), CellTiter-Glo; read-out: Ba/F3-FLT3-ITD Relative IC50. Here is the method: Activity of compounds on FLT3 activating mutations were assessed using Ba/F3 cell lines (mouse pro-B cell line) stably expressing human FLT3-ITD, FLT3-ITD-D835Y or FLT3-ITD-F691L. […] The supernatant collected were concentrated with PEG8000 and used to infect Ba/F3 cells at 1-5 MOI in serum-free media with polybrene. Infected Ba/F3 cells were selected in presence of puromycin, and surviving cells verified by sequencing and/or protein detection assay. Constitutive expression of the activating kinase transforms the Ba/F3 cells into IL-3-independent growth allowing them to be cultured in the absence of IL-3. […] For use in compound testing, cells in exponential growth phase were harvested, counted, and resuspended at the required cell density. Cell viability assays were performed in 96-well assay plates and 90 μL of cell suspension seeded per well. Serial dilutions of the test compounds and assay controls and were freshly prepared for the assay. Nine-point 3× serial dilutions were prepared in 100% DMSO (400× stock) and subsequently diluted in cell culture media to obtain 10× stocks. Ten microliters of the 10× stock serial dilutions were added to the appropriate wells (triplicate wells per condition) in the assay plate. […] Assay plates were incubated for 3 days in at 37° C. in a humidified incubator with 5% CO2.
Inhibition rate (IR) of the tested compounds was determined by the following formula: IR (%)=(1−(RLU compound−RLU blank)/(RLU control−RLU blank))*100%. The inhibitions of different dose of compound were calculated in Excel file, and the dose responses were analysed using GraphPad Prism to evaluate related parameters, such as Bottom, Top and IC50. For the IC50 analysis by GraphPad Prism, the equation below was used to fit curve: Y=Bottom+(Top−Bottom)/(1+10^((LogIC50−X)*HillSlope))
On the technique in general: Cellular ATP, detected with luciferase, serves as a proxy for viable cell number.

As usually defined, the IC50 is the concentration at which inhibition is half-maximal. Regarding `CCc1nc(C(N)=O)c(Nc2cccc(CCNC(=O)CN(C)C(=O)/C=C/CN(C)C)c2)nc1N(C)CC` [Compound 252, (E)-3-((3-(2-(2-(4-(dimethylamino)-N-methylbut-2-enamido)acetamido)ethyl)phenyl)amino)-6-ethyl-5-(ethyl (methyl)amino) pyrazine-2-carboxamide], the IC50 in assay [1] is less than 1 nM. The GI50 in assay [2] is less than 1 nM. Regarding `CCc1nc(C(N)=O)c(Nc2ccc(N3CCC(N4CCN(C)CC4)CC3)c(OC)c2)nc1NC1CCOCC1` [Gilteritinib, gilteritinib, reference compound], the IC50 in assay [1] was 1 to 10 nM. In the case of `CCc1nc(C(N)=O)c(Nc2cccc([C@@H](C)CNC(=O)CN(C)C(=O)/C=C/CN3CCC3)c2)nc1N(C)CC` [Compound 518, (R,E)-3-((3-(1-(2-(4-(azetidin-1-yl)-N-methylbut-2-enamido)acetamido)propan-2-yl)phenyl)amino)-6-ethyl-5-(ethyl(methyl)amino)pyrazine-2-carboxamide], the concentration for half-maximal inhibition (IC50) in assay [1] is less than 1 nM. Also, the GI50 in assay [2] lay within 1 to 10 nM. As to `CCc1nc(C(N)=O)c(Nc2cccc(CCNC(=O)[C@H](C)N(C)C(=O)/C=C/CN(C)C)c2)nc1N(C)C(C)C` [Compound 204, (S,E)-3-((3-(2-(2-(4-(dimethylamino)-N-methylbut-2-enamido)propanamido)ethyl)phenyl)amino)-6-ethyl-5-(isopropyl(methyl)amino)pyrazine-2-carboxamide], the IC50 in assay [1] is less than 1 nM. Moreover, the GI50 in assay [2] lay within 1 to 10 nM. The like results for `Cc1nc(C(N)=O)c(Nc2cccc(CCNC(=O)[C@H](C)N(C)C(=O)/C=C/CN(C)C)c2)nc1N(C)C(C)C` [Compound 232, (S, E)-3-((3-(2-(2-(4-(dimethylamino)-N-methylbut-2-enamido)propanamido)ethyl)phenyl)amino)-5-(isopropyl (methyl)amino)-6-methylpyrazine-2-carboxamide] were, in that order, 1 to 10 nM and 1 to 10 nM. In the same order, the values of `CCc1nc(C(N)=O)c(Nc2cccc(CCNC(=O)[C@H](C)N(C)C(=O)/C=C/CN(C)C)c2)nc1NC(C)C` [Compound 205, (S,E)-3-((3-(2-(2-(4-(dimethylamino)-N-methylbut-2-enamido)propanamido)ethyl)phenyl)amino)-6-ethyl-5-(isopropylamino)pyrazine-2-carboxamide] are less than 1 nM and less than 1 nM. Regarding `CCc1nc(C(N)=O)c(Nc2cccc([C@@H](C)CNC(=O)CN(C)C(=O)/C=C/CN3CCC3)c2)nc1C1CC1` [Compound 506, (R,E)-3-((3-(1-(2-(4-(azetidin-1-yl)-N-methylbut-2-enamido)acetamido)propan-2-yl)phenyl)amino)-5-cyclopropyl-6-ethylpyrazine-2-carboxamide], the half-maximal inhibitory concentration (IC50) in assay [1] is less than 1 nM. Further, the GI50 in assay [2] was in the range of 1 to 10 nM. In the same order, the values of `CCc1nc(C(N)=O)c(Nc2cccc(CCNC(=O)CN(C)C(=O)/C=C/CN3CCC3)c2)nc1OC(C)C` [Compound 603, (E)-3-((3-(2-(2-(4-(azetidin-1-yl)-N-methylbut-2-enamido)acetamido)ethyl)phenyl)amino)-6-ethyl-5-isopropoxypyrazine-2-carboxamide] are 1 to 10 nM and 1 to 10 nM.

Take `CCCc1nc(Nc2cccc([C@@H](C)CNC(=O)CN(C)C(=O)/C=C/CN3CCC3)c2)c(C(N)=O)nc1CC` [Compound 507, (R,E)-3-((3-(1-(2-(4-(azetidin-1-yl)-N-methylbut-2-enamido)acetamido)propan-2-yl)phenyl)amino)-6-ethyl-5-propylpyrazine-2-carboxamide]: in assay [1], the IC50 was less than 1 nM. Further, in assay [2], the GI50 lay in the range of 1 to 10 nM. Turning to `CCc1nc(Nc2cccc([C@@H](C)CNC(=O)CN(C)C(=O)/C=C/CN3CCC3)c2)c(C(N)=O)nc1CC` [Compound 508, (R, E)-3-((3-(1-(2-(4-(azetidin-1-yl)-N-methylbut-2-enamido)acetamido)propan-2-yl)phenyl)amino)-5,6-diethylpyrazine-2-carboxamide], the IC50 in assay [1] was greater than 500 nM. Moreover, the GI50 in assay [2] lay within 1 to 10 nM. `CCc1nc(C(N)=O)c(Nc2ccnc(CCNC(=O)[C@H](C)N(C)C(=O)/C=C/CN(C)C)c2)nc1N(C)C(C)C` [Compound 605, (S, E)-3-((2-(2-(2-(4-(dimethylamino)-N-methylbut-2-enamido)propanamido)ethyl)pyridin-4-yl)amino)-6-ethyl-5-(isopropyl (methyl)amino) pyrazine-2-carboxamide]: the IC50 in assay [1] was less than 1 nM. Besides, in assay [2], the GI50 lay within 1 to 10 nM. In the same order, the values of `CCc1nc(C(N)=O)c(Nc2cccc(CCNC(=O)[C@H](C)N(C)C(=O)/C=C/CNC)c2)nc1N(C)C(C)C` [Compound 307, (S,E)-6-ethyl-5-(isopropyl(methyl)amino)-3-((3-(2-(2-(N-methyl-4-(methylamino)but-2-enamido)propanamido)ethyl)phenyl)amino)pyrazine-2-carboxamide] are less than 1 nM and 1 to 10 nM. In the same order, the values of `CCc1nc(C(N)=O)c(Nc2cccc([C@@H](C)CNC(=O)CN(C)C(=O)/C=C/CN(C)C)c2)nc1C1CC1` [Compound 504, (R,E)-5-cyclopropyl-3-((3-(1-(2-(4-(dimethylamino)-N-methylbut-2-enamido)acetamido)propan-2-yl)phenyl)amino)-6-ethylpyrazine-2-carboxamide] are less than 1 nM and 1 to 10 nM. In the same order, the values of `CCc1nc(C(N)=O)c(Nc2cccc(CCNC(=O)CN(C)C(=O)/C=C/CN3CCC3)c2)nc1N(C)CC` [Compound 516A, (E)-3-((3-(2-(2-(4-(azetidin-1-yl)-N-methylbut-2-enamido)acetamido)ethyl)phenyl)amino)-6-ethyl-5-(ethyl(methyl)amino) pyrazine-2-carboxamide] are less than 1 nM and 1 to 10 nM.

Regarding `CCOc1nc(Nc2cccc(CCNC(=O)CN(C)C(=O)/C=C/CN3CCC3)c2)c(C(N)=O)nc1CC` [Compound 602, (E)-3-((3-(2-(2-(4-(azetidin-1-yl)-N-methylbut-2-enamido)acetamido)ethyl)phenyl)amino)-5-ethoxy-6-ethylpyrazine-2-carboxamide], the IC50 in assay [1] is 1 to 10 nM. Moreover, the GI50 in assay [2] fell in the range of 1 to 10 nM. In the case of `CCc1nc(C(N)=O)c(Nc2ccnc(CCNC(=O)[C@H](C)N(C)C(=O)/C=C/CN(C)C)c2)nc1C1CC1` [Compound 310, (S,E)-5-cyclopropyl-3-((2-(2-(2-(4-(dimethylamino)-N-methylbut-2-enamido)propanamido)ethyl)pyridin-4-yl)amino)-6-ethylpyrazine-2-carboxamide], the concentration for half-maximal inhibition (IC50) in assay [1] was 1 to 10 nM. Also, the GI50 in assay [2] is 1 to 10 nM.

As to `CCc1nc(C(N)=O)c(Nc2cc(F)cc(CCNC(=O)CN(C)C(=O)/C=C/CN3CCC3)c2)nc1C1CC1` [Compound 516, (E)-3-((3-(2-(2-(4-(azetidin-1-yl)-N-methylbut-2-enamido)acetamido)ethyl)-5-fluorophenyl)amino)-5-cyclopropyl-6-ethylpyrazine-2-carboxamide], the IC50 in assay [1] was in the range of 1 to 10 nM. Besides, in assay [2], the GI50 lay in the range of 1 to 10 nM.
